The results in this text go back to patent US20040086535A1, “Novel antiviral acitivities of primate theta defensins and mammalian cathelicidins” (priority 2001, published 2004).

Like-named read-outs stand apart in the source and are kept apart here. No end group written: not given here.

The conditions of data set [1]: mice, lung instillation of 100 μg.
Data set [2] can be described thus: Systemic toxicity in mice. The settings on record: systemic dose of 5 mg/kg.
Data set [3] has as its system EIAV (MA-1 strain) in equine dermal cell line ED. Nature of the data set: EIAV infectivity, immunostaining of antigen-expressing cells at 40 h. It is filed as cell-based, equine infectious anemia virus. The conditions noted are these: for effect on the EIAV virus titer: theta defensins.
Data set [4] concerns HIV (pNL4-3 strain) in HeLa 37 cells. It is filed as cell-based. The conditions noted are these: for anti-retroviral activity of carboxy-terminal peptides (qualitative): HIV, 8 μg/ml, 40 h (FIG. 3B), preliminary studies; for anti-viral activity against HIV, numbers of HIV antigen positive cells (qualitative): theta defensins preincubated 15-30 minutes with HIV, HeLa cells, 40 h.

A further data set deals with herpes simplex 1 (HSV-1). The experiment in a line: HSV-1 plaque formation inhibition, virus preincubated with peptide. It is filed as cell-based, herpes simplex virus 1.
For a further data set, the system named is herpes simplex 2 (HSV-2). Nature of the data set: HSV-2 plaque formation inhibition, virus preincubated with peptide. It is filed as cell-based, herpes simplex virus 2.
For a further data set, the system named is vaccinia virus. The experiment in a line: Vaccinia virus replication. The settings on record: similar concentrations. It is filed as cell-based.
Data set [5] can be described thus: % helicity (circular dichroism). The settings on record: for % helicity in Phos. Buffer: phosphate buffer; for % helicity in phosphate buffer + 40% TFE: phosphate buffer + 40% TFE (parenthetical value). It is filed as physicochemical.
A further data set concerns cytomegalovirus (CMV). The experiment in a line: CMV plaque formation / cytopathology in primary human fibroblasts. It is filed as cell-based. The conditions noted are these: for CMV plaque formation: virus preincubated 1 h at 37° C., MOI approx. 5, 14 days post infection.
Data set [6] relates to adenovirus, a non-enveloped virus. Nature of the data set: Adenovirus infectivity. It is filed as cell-based. The settings on record: similar concentrations (6-8 μg/ml); data not shown.
The test system of another data set is EIAV (MA-1). Nature of the data set: Time course of Ov-1 addition against EIAV, antigen immunostaining of monolayers. It is filed as cell-based, equine infectious anemia virus. The conditions noted are these: 10 μg/ml. Here is the method:
Studies with EIAV investigating the mode of action of the Ov class antivirals indicate that the peptides are acting early within the viral life cycle, perhaps acting on the viral particle itself. Ten μg/ml of Ov-1 was added to virus stocks of MA-1 either before, at the time of infection or various times following infection. Virus and peptide was then removed from the media 48 h post infection and the infected cultures were maintained for an additional 5 days to allow spread of any virus that is present within the culture. Monolayers were then immunostained for EIAV antigen expression.

Data set [7] has as its system herpes viruses and retroviruses.
In data set [8] the test system is primary human fibroblasts.
The conditions of data set [9]: mouse, in vivo, 5 mg/kg.

On to “KNLRRIIRKIIHIIKKYG [Ov-2, KNLRRIIRKIIHIIKKYG]”, for which the “inflammation, cytokine elevation, blood markers” value in [1] is given as “No imflammation, cytokine elevation or increase in blood markers was detected”. The adverse effects entry in data set [2] is recorded as “no adverse effects”.

“GFCRCLCRRGVCRCICTR [RTD-1, rhesus monkey theta defensin]”: in data set [3], the “effect on the EIAV virus titer” value is “no effect”.

Consider “KIIHIIKKYGPTILRIIRIIG-NH2 [Ov-4, carboxy-terminal 21-mer of Ov-1]”, for which the “anti-retroviral activity of carboxy-terminal peptides (qualitative)” value (“anti-retroviral activity” for short) in data set [4] is on record as “have anti-retroviral activity”.

Consider “ISRLAGLLRKGGEKIGEKLKKIGQKIKNFFQKLVPQPEQ (listed as Mus musculus) [mCramp, a murine cathelicidin]”, for which the “reduction of herpes simplex 1 replication” value in the data set on herpes simplex 1 (HSV-1) is recorded as “approximately 75%”. Further, the “reduction of herpes simplex 2 replication” value in the data set on herpes simplex 2 (HSV-2) is “approximately 75%”. Further, the “infectivity of EIAV (qualitative)” value in data set [3] is listed as “consistently reduced the infectivity”. Also, in [4], the “infectivity of HIV (qualitative)” value is “consistently reduced the infectivity”. In the data set on vaccinia virus, the “inhibitory effect on vaccinia virus replication” value was “no inhibitory effect”.

For the substance KNLRRITRKIIHIIKKYG [Ov-2 (T7)], in [5], the “% helicity in Phos. Buffer” value was found to be 8.0% and the “% helicity in phosphate buffer + 40% TFE” value is given as 66.8%.

As for “GICRCICGRGICRCICGR [HTD-1, synthetic peptide specified from human pseudogene, human theta defensin 1]”, the “effect on the EIAV virus titer” value in [3] is listed as “no effect”. Further, the “enhancement of IC50 by circularization” value in data set [4] (oxidized, circularized versus oxidized form) was “about 10 fold”. For the same substance, the “anti-viral activity against HIV, numbers of HIV antigen positive cells (qualitative)” value in data set [4] was “greatest anti-viral activity”; in [4] (listed as human theta defensin-1), “most effective”.

Consider KNLRRIIRKGIHIIKKYG [Ov-2 (G10)], for which, in data set [5], the “% helicity in Phos. Buffer” value was 7.4% and the “% helicity in phosphate buffer + 40% TFE” value turned out to be 50.4%.

Turning to “KNLRRIIRKIIHIIKKYGPTILRIIRIIG-NH2 [Ov-1]”, the “inhibition of HSV-1 plaque formation” value in the data set on herpes simplex 1 (HSV-1) (6 μg/ml peptide) is listed as 3-6 fold; in the data set with herpes simplex 1 (HSV-1) (18 μg/ml peptide) it was “approximately 100 fold”. The “inhibition of HSV-2 plaque formation” value with herpes simplex 2 (HSV-2) (6 μg/ml peptide) was 3-6 fold; in the data set with herpes simplex 2 (HSV-2) (18 μg/ml peptide), “approximately 100 fold”. Further, the CMV plaque formation entry with cytomegalovirus (CMV) (5 μg/ml) was “Plaque formation and accompanying monolayer disintegration can be observed”; in the data set with cytomegalovirus (CMV) (20 μg/ml), “No plaque formation was detected”. Moreover, the “CMV plaque formation (qualitative)” value in the data set with cytomegalovirus (CMV) (14 days) is “reduced plaque formation”. In data set [3] (6-8 μg/ml peptide), the “decrease of EIAV infectivity” value is listed as “greater than 100 fold”. Also, in data set [4] (6-8 μg/ml peptide), the “decrease of HIV infectivity” value is reported as “greater than 100 fold”. Also, in [6], the “effect on infectivity of adenovirus” value is recorded as under 10 fold. The “outcome of culture (qualitative)” value with EIAV (MA-1) (added 30 minutes or later following virus infection) was “resulted in infection and spread of the virus throughout the monolayer”. The “effectiveness in inhibiting virus replication” value in the data set on EIAV (MA-1) (added during preincubation or at the time of infection) came out at 100%. In [5], the “% helicity in Phos. Buffer” value was 43.9%. The “% helicity in phosphate buffer + 40% TFE” value in data set [5] was 97.9%. The “effective LD50 for inhibiting herpes viruses and retroviruses” value in data set [7] is reported as “approximately 3 μg/ml”. For the same substance, the “effect on the monolayer of primary human fibroblasts” value in [8] is on record as “little to no effect”. Besides, in data set [9], the adverse effects entry is “no adverse effects”.

Turning to “LRRIIRKIIHIIKK-NH2 [Ov-3, LRRIIRKIIHIIKK-NH2]”, the adverse effects result in data set [2] is reported as “no adverse effects”.

On to “HIIKKYGPTILRIIRIIG-NH2 [Ov-6, 18 carboxyl-terminal amino acids of Ov-1]”, for which, in data set [4], the “anti-retroviral activity” value is “did not have appreciable anti-viral activity”.

As for “GVCRCLCRRGVCRCLCRR [RTD-3, rhesus monkey theta defensin]”, the “anti-viral activity against HIV, numbers of HIV antigen positive cells (qualitative)” value in data set [4] was “greatest anti-viral activity”; in data set [4] (listed as rhesus theta defensin-3), “most effective”.

“IHIIKKYGPTILRIIRIIG-NH2 [Ov-5, carboxy-terminal 19-mer of Ov-1]”: the “anti-retroviral activity” value in data set [4] is “have anti-retroviral activity”.
